# Source: patent US12103965B2, “Diagnostic kit” (Phoenix Pharmaceuticals, Inc., priority 2011, dated 2024)
# Where no end group is shown, it is not given here.
# Columns and labels:
# [1] = tested on: rat pituitary adenoma cells, RC-4B/C; test: cAMP production in pituitary cells (cAMP Biotrak enzyme immunoassay); assay type: cell-based; details: 100 nM peptide, 30 min, in presence of IBMX; PBS-control 100% = 4.94±0.5 pmol/mg protein
# Procedure: Rat pituitary adenoma cells, RC-4B/C (CRL-1903; ATCC, Manassas, VA, USA), were cultured in Dulbecco's Modified Eagle's Medium and Minimum Essential Alpha Medium (Invitrogen, CA, USA) supplemented with 0.01 mM non-essential amino acids, 15 mM HEPES, 2.5 ng/ml epidermal growth factor, and dialyzed, heat-inactivated fetal bovine serum (“FBS”) at 37° C. in a humidified cell incubator containing 5% carbon dioxide (“CO2”). After 2 days of cell cultured in 24 wells plate, cell were equilibrated for 2 hours in serum-free medium and then incubated with 0.1 mM 3-isobutyl-1-methylxanthine (“IBMX”) in serum-free medium 30 min again. Then, cells were challenged with either 100 nM of […]-NH2 (SEQ. ID NO: 7), DVQPPGLKVWSDPFG (SEQ. ID NO: 3), DVQPPGLKVWSDPF-NH2 (SEQ. ID NO: 9), or a PBS-control in the presence of IBMX and incubated for 30 min. After incubation, supernatant medium was then aspirated and the cells in each well were extracted by 70% cold ethanol. Alcohol was evaporated in a vacuum concentrator (PN: AES 2000, Savant, Hicksvile, NY, USA) Thereafter, cAMP content was determined by using a cAMP Biotrak enzyme immunoassay kit (GE healthcare-Amersham, Piscataway, NJ, USA) in accordance with the protocol of the manufacturer.
# [2] = tested on: rat pituitary adenoma cells, RC-4B/C; assay type: binding
# Procedure: Also, rat pituitary adenoma cells, RC-4B/C cells, were used in the assay of radioligand binding. For the binding displacement, cells were incubated for 30 min with 50 pM 125I-Y0-Phoenixin-20 (amide SEQ. ID NO: 7) in the absence or presence of increasing concentrations of un-labeled Phoenixin-20 amide (amide SEQ. ID NO: 7) or phoenixin-14 amide (amide SEQ. ID NO: 9). Nonspecific binding was defined as total binding in the presence of 1 μM unlabeled Phoenixin-20 amide (amide SEQ. ID NO: 7) or phoenixin-14 amide (amide SEQ. ID NO: 9). After termination of the binding reaction by washing the cells with 1 ml of cold PBS, cells were solubilized with 0.5 ml of 1% SDS, and radioactivity was detected in a gamma counter.
# [3] = tested on: antibodies raised to AGIVQEDVQPPGLKVWSDPF-NH2 (SEQ. ID NO: 7); test: RIA/EIA cross-reactivity of anti-phoenixin antibodies; assay type: binding; details: RIA or EIA
# Procedure: Homogenates were prepared from heart tissues of adult rats. The supernatant of the rat heart homogenates were passed through C18 column extraction cartridges and P6 gel filtration to further purify native peptide candidates. The immunoreactive fractions as determined by conventional enzyme immunoassay (“EIA”) in which labeled chemically synthesized peptides as described above compete with unlabeled native phoenixin peptide for a limited quantity of the anti-phoenixin peptide antibodies, produced as above described. The label can be biotin complex which by reaction with streptavidin horseradish peroxidase and sequent reaction of the horseradish peroxidase with colormetric or fluorescence substrates can be quantitated. […]
# Homogenates of porcine or bovine or rat tissue of heart, lung, kidney, spinal cord, small intestine, liver, pancreas, hypothalamus, spleen, and thymus were prepared as above-described and the resulting fractions were processed by the above-described peptides extraction procedure and were assayed by radio-immunoassay (“[…]”) or Enzyme Immunoassay (EIA) using antibodies raised to […]-NH2 (SEQ. ID NO: 7). […] Protein concentrations were determined by bicinchoninic acid (“BCA”) protein assay in accordance to the protocol of the manufacturer Thermo Scientific, Rockford, Illinois using bovine serum albumin (“BSA”) as a standard. […]
Substance,increase of intracellular cAMP production over the PBS control [1],IC50 [2] [nM],cross-reactive with antibodies raised to SEQ. ID NO: 7 [3]
"AGIVQEDVQPPGLKVWSDPF-NH2 [SEQ. ID NO: 7, phoenixin (1-20) amide]",greater than two fold and even three-fold,21.5,
"DVQPPGLKVWSDPF-NH2 [SEQ. ID NO: 9, phoenixin (7-20) amide]",greater than two fold and even three-fold,17.9,100%
phoenixin (7-21) (DVQPPGLKVWSDPFG; listed as Homo sapiens) [SEQ. ID NO: 3],greater than two fold and even three-fold,,less than 0.5%
